Data as given in article PMC11855827, “High-Throughput Screening of Five Compound Libraries for Anthelmintic Activity and Toxicity Leads to the Discovery of Two Flavonoid Compounds” (International Journal of Molecular Sciences, 2025).
Read-outs that look alike come from different tables or passages of the source.

Tested on: C. elegans
[1] = Table S2, C. elegans SS assay, 110 μM, 0 h, averages of 4 data points
[2] = Table S2, C. elegans SS assay, 110 μM, 24 h, averages of 4 data points

SMILES | Percentage of motility inhibition 0 h [1] [%] | Percentage of motility inhibition 24 h [2] [%] | Percentage of motility inhibition 0 h (110 µM) [%] | Percentage of motility inhibition 24 h (110 µM) [%]
CC(C)=CCc1c(-c2ccc(O)cc2O)oc2c(CC=C(C)C)c(O)cc(O)c2c1=O [Mulberrin] | 32 | 5 |  | 
CNc1nc2nc[nH]c2c(=O)[nH]1 [N2‐Methylguanine] |  |  | 14 | 43
CC1(C)CC(NC(=O)C(=O)Nc2ccc(Cl)cc2)CC(C)(C)N1 [NBD‐556] | 45 | 11 |  | 
CC1(C)CC(NC(=O)C(=O)Nc2ccc(Br)cc2)CC(C)(C)N1 [NBD‐557] | 22 | 14 |  | 
C[C@@]1(O)[C@H](O)[C@@H](CO)O[C@H]1n1ccc(N)nc1=O [NM107] | 37 | 27 |  | 
CCOc1ccc2ccccc2c1C(=O)N[C@@H]1C(=O)N2[C@@H]1SC(C)(C)[C@@H]2C(=O)[O-].O.[Na+] [Nafcillin (sodium monohydrate)] | 12 | 2 |  | 
CCn1cc(C(=O)[O-])c(=O)c2ccc(C)nc21.[Na+] [Nalidixic acid (sodium salt)] | 0 | 0 |  | 
CC(C)(C)NCc1cc(Nc2ccnc3cc(Cl)ccc23)c2c(c1O)CCCC2.O=P(O)(O)O.O=P(O)(O)O [Naphthoquine (phosphate)] | 28 | 8 |  | 
O=C1N[C@@H]2C(=C[C@H](O)[C@@H](O)[C@H]2O)c2cc3c(c(O)c21)OCO3 [Narciclasine] | 32 | 14 |  | 
CC(=O)Oc1ccc([C@@H]2CC(=O)c3c(OC(C)=O)cc(OC(C)=O)cc3O2)cc1 [Naringenin triacetate] | 0 | 14 |  | 
C[C@@H]1O[C@@H](O[C@H]2[C@H](Oc3cc(O)c(C(=O)CCc4ccc(O)cc4)c(O)c3)O[C@H](CO)[C@@H](O)[C@@H]2O)[C@H](O)[C@H](O)[C@H]1O [Naringin Dihy drochalcone] | 14 | 1 |  | 
CS(=O)(=O)O.Cc1c(O)cccc1C(=O)N[C@@H](CSc1ccccc1)[C@H](O)CN1C[C@H]2CCCC[C@H]2C[C@H]1C(=O)NC(C)(C)C [Nelfinavir (Mesylate)] | 47 | 5 |  | 
N#C[C@@H](O[C@@H]1O[C@H](CO[C@@H]2O[C@H](CO)[C@@H](O)[C@H](O)[C@H]2O)[C@@H](O)[C@H](O)[C@H]1O)c1ccccc1 [Neoamygdalin] | 0 | 0 |  | 
COc1ccc(-c2cc(=O)c3c(O)cc(O[C@@H]4O[C@H](CO)[C@@H](O)[C@H](O)[C@H]4O[C@@H]4O[C@@H](C)[C@H](O)[C@@H](O)[C@H]4O)cc3o2)cc1O [Neodiosmin] | 14 | 6 |  | 
C[C@@H]1O[C@@H](O[C@H]2[C@H](Oc3cc(O)c4c(c3)O[C@H](c3ccc(O)c(O)c3)CC4=O)O[C@H](CO)[C@@H](O)[C@@H]2O)[C@H](O)[C@H](O)[C@H]1O [Neoeriocitrin] | 6 | 13 |  | 
COc1ccc([C@@H]2CC(=O)c3c(O)cc(O[C@@H]4O[C@H](CO)[C@@H](O)[C@H](O)[C@H]4O[C@@H]4O[C@@H](C)[C@H](O)[C@@H](O)[C@H]4O)cc3O2)cc1O [Neohesperidin] | 14 | 0 |  | 
C[C@@H]1O[C@@H](O[C@H]2C(=O)c3c(O)cc(O)cc3O[C@H]2c2ccc(O)c(O)c2)[C@H](O)[C@H](O)[C@H]1O [Neoisoastilbin] | 0 | 0 |  | 
O=C(/C=C/c1ccc(O)cc1)c1ccc(O[C@@H]2O[C@H](CO)[C@@H](O)[C@H](O)[C@H]2O)cc1O [Neoisoliquiritin] | 17 | 11 |  | 
